# Experimental data: patent US10730863B2, “Bridged bicyclic compounds as farnesoid X receptor modulators” (BRISTOL-MYERS SQUIBB COMPANY, priority 2017, dated 2020)
# Biological target: FXR (Homo sapiens (Human), UniProt Q96RI1)
# Experiment: FXR EC50 (FXR agonist activity reported with each example)
# Type: cell-based
# Sequence of FXR (Q96RI1 262-486): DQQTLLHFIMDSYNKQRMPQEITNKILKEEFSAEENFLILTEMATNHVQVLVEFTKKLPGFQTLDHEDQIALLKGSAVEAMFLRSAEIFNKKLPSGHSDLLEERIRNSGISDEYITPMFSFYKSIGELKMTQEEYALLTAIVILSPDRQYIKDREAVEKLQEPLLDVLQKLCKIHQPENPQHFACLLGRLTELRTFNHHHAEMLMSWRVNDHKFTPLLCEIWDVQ
row,Compound,EC50 [nM]
1,"O=C(O)c1cc(F)cn2c(C#CC34CCC(OCc5c(-c6c(Cl)cncc6Cl)noc5C5CC5)(CC3)CC4)cnc12 [Example 520, 3-((4-((5-cyclopropyl-3-(3,5-dichloropyridin-4-yl)isoxazol-4-yl)methoxy)bicyclo[2.2.2]octan-1-yl)ethynyl)-6-fluoroimidazo[1,2-a]pyridine-8-carboxylic acid]",4
2,O=C(O)c1ccc(C2CC2)c2nc(C34CCC(OCc5c(C(C6CC6)C6CC6)noc5C5CC5)(CC3)CC4)ccc12 [Example 424],500
3,"COc1ccc(-c2noc(C34CCC(/C=C/c5c(-c6c(Cl)cncc6Cl)noc5C5CC5)(CC3)CC4)n2)cc1C(=O)O [Example 437, (E)-5-(5-(4-(2-(5-cyclopropyl-3-(3,5-dichloropyridin-4-yl)isoxazol-4-yl)vinyl)bicyclo[2.2.2]octan-1-yl)-1,2,4-oxadiazol-3-yl)-2-methoxybenzoic acid]",23
4,"COc1cncc(Cl)c1-c1noc(C2CC2)c1/C=C/C12CCC(c3ccc(C(C)(C)C(=O)O)cc3)(CC1)OC2 [Example 483, (E)-2-(4-(4-(2-(3-(3-chloro-5-methoxypyridin-4-yl)-5-cyclopropylisoxazol-4-yl)vinyl)-2-oxabicyclo[2.2.2]octan-1-yl)phenyl)-2-methylpropanoic acid]",4500
5,"O=C(O)c1csc(OCC23CCC(OCc4c(-c5c(Cl)cncc5Cl)noc4C4CC4)(CC2)CC3)n1 [Example 465, 2-((4-((5-cyclopropyl-3-(3,5-dichloropyridin-4-yl)isoxazol-4-yl)methoxy)bicyclo[2.2.2]octan-1-yl)methoxy)thiazole-4-carboxylic acid]",180
6,"COc1ccc(-c2noc(C34CCC(OCc5c(-c6c(Cl)cncc6Cl)noc5C5CC5)(CC3)CC4)n2)cc1C(=O)NS(C)(=O)=O [Example 236, 5-(5-(4-((5-cyclopropyl-3-(3,5-dichloropyridin-4-yl)isoxazol-4-yl)methoxy)bicyclo[2.2.2]octan-1-yl)-1,2,4-oxadiazol-3-yl)-2-methoxy-N-(methylsulfonyl)benzamide]",26
7,O=C(O)c1cc(OCC(CO)CCl)c2cc(OCC34CCC(OCc5c(-c6c(Cl)cncc6Cl)noc5C5CC5)(CC3)CC4)ccc2n1 (centres unmarked) [Example 356],110
8,"COc1cc(-c2noc(C34CCC(OCc5c(-c6c(Cl)cncc6Cl)noc5C5CC5)(CC3)CC4)n2)cc(C(=O)O)c1OC [Example 243, 5-(5-(4-((5-cyclopropyl-3-(3,5-dichloropyridin-4-yl)isoxazol-4-yl)methoxy)bicyclo[2.2.2]octan-1-yl)-1,2,4-oxadiazol-3-yl)-2,3-dimethoxybenzoic acid]",120
9,O=C(O)c1cccc(NC(=O)C23CCC(C=Cc4c(-c5c(Cl)cccc5Cl)noc4C4CC4)(CC2)CC3)c1 [Example 190],3500
10,"O=C(O)c1ccc(OCC23CCC(OCc4c(-c5c(Cl)cncc5Cl)noc4C4CC4)(CC2)CC3)c(F)c1 [Example 276, 4-((4-((5-cyclopropyl-3-(3,5-dichloropyridin-4-yl)isoxazol-4-yl)methoxy)bicyclo[2.2.2]octan-1-yl)methoxy)-3-fluorobenzoic acid]",170
11,"O=C(O)c1cc(OCC23CCC(OCc4c(-c5c(Cl)cccc5Cl)noc4C4CC4)(CC2)CC3)ccc1F [Example 93, 5-((4-((5-cyclopropyl-3-(2,6-dichlorophenyl)isoxazol-4-yl)methoxy)bicyclo[2.2.2]octan-1-yl)methoxy)-2-fluorobenzoic acid]",32
12,O=C(O)c1ccc(-c2noc(C34CCC(OCc5c(-c6ccccc6OC(F)(F)F)noc5C5CC5)(CC3)CC4)n2)nc1 [Example 42],1500
13,O=C(O)[C@@H]1CCC[C@H](OCC23CCC(OCc4c(-c5ccccc5OC(F)(F)F)noc4C4CC4)(CC2)CC3)C1 [Example 80],5100
14,"COc1nc(C(=O)O)cc2ccc(/C=C/C34CCC(OCc5c(-c6c(Cl)cncc6Cl)noc5C5CC5)(CC3)CC4)cc12 [Example 517, (E)-7-(2-(4-((5-cyclopropyl-3-(3,5-dichloropyridin-4-yl)isoxazol-4-yl)methoxy)bicyclo[2.2.2]octan-1-yl)vinyl)-1-methoxyisoquinoline-3-carboxylic acid]",42
15,"O=C(O)c1cc(OCC23CCC(/C=C/c4c(-c5c(Cl)cncc5Cl)noc4C4CC4)(CC2)OC3)cc(C(F)(F)F)c1 [Example 473, (E)-3-((1-(2-(5-cyclopropyl-3-(3,5-dichloropyridin-4-yl)isoxazol-4-yl)vinyl)-2-oxabicyclo[2.2.2]octan-4-yl)methoxy)-5-(trifluoromethyl)benzoic acid]",320
16,"Cc1c(OCC23CCC(OCc4c(-c5c(Cl)cccc5Cl)noc4C4CC4)(CC2)CC3)cccc1C(=O)O [Example 95, 3-((4-((5-cyclopropyl-3-(2,6-dichlorophenyl)isoxazol-4-yl)methoxy)bicyclo[2.2.2]octan-1-yl)methoxy)-2-methylbenzoic acid]",400
17,O=C(O)c1cccc(OCC23CCC(OCc4c(-c5ccccc5OC(F)(F)F)noc4C4CC4)(CC2)CC3)c1 [Example 77],180
18,"CC(C)Oc1cc(C(=O)O)nc2c(F)cc(OCC34CCC(OCc5c(-c6c(Cl)cncc6Cl)noc5C5CC5)(CC3)CC4)cc12 [Example 304, 6-((4-((5-cyclopropyl-3-(3,5-dichloropyridin-4-yl)isoxazol-4-yl)methoxy)bicyclo[2.2.2]octan-1-yl)methoxy)-8-fluoro-4-isopropoxyquinoline-2-carboxylic acid]",11

row,Compound,EC50 [nM]
1,"O=C(O)c1cccc2nc(C34CCC(CCc5c(-c6ccccc6OC(F)(F)F)noc5C5CC5)(CC3)CC4)sc12 [Example 456, 2-(4-(2-(5-cyclopropyl-3-(2-(trifluoromethoxy)phenyl)isoxazol-4-yl)ethyl)bicyclo[2.2.2]octan-1-yl)benzo[d]thiazole-7-carboxylic acid]",22
2,"CN(Cc1ccccc1C(=O)O)C(=O)C12CCC(OCc3c(-c4c(Cl)cccc4Cl)noc3C3CC3)(CC1)CC2 [Example 144, 2-((4-((5-cyclopropyl-3-(2,6-dichlorophenyl)isoxazol-4-yl)methoxy)-N-methylbicyclo[2.2.2]octane-1-carboxamido)methyl)benzoic acid]",160
3,O=C(O)c1cccc(-c2noc(C34CCC(OCc5c(-c6ccccc6C(F)(F)F)noc5C5CC5)(CC3)CC4)n2)n1 [Example 48],2100
4,"O=C(O)C1CC1c1noc(CC23CCC(OCc4c(-c5c(Cl)cncc5Cl)noc4C4CC4)(CC2)CC3)n1 (centres unmarked) [Example 272, 2-(5-((4-((5-cyclopropyl-3-(3,5-dichloropyridin-4-yl)isoxazol-4-yl)methoxy)bicyclo[2.2.2]octan-1-yl)methyl)-1,2,4-oxadiazol-3-yl)cyclopropane-1-carboxylic acid]",400
5,"NC(=O)c1cc(-c2noc(C34CCC(/C=C/c5c(-c6c(Cl)cncc6Cl)noc5C5CC5)(CC3)CC4)n2)cc(C(F)(F)F)c1 [Example 441, (E)-3-(5-(4-(2-(5-cyclopropyl-3-(3,5-dichloropyridin-4-yl)isoxazol-4-yl)vinyl)bicyclo[2.2.2]octan-1-yl)-1,2,4-oxadiazol-3-yl)-5-(trifluoromethyl)benzamide]",150
6,"O=C(O)C1CC1c1noc(C23CCC(OCc4c(-c5c(Cl)cccc5Cl)noc4C4CC4)(CC2)CC3)n1 (centres unmarked) [Example 266, 2-(5-(4-((5-cyclopropyl-3-(2,6-dichlorophenyl)isoxazol-4-yl)methoxy)bicyclo[2.2.2]octan-1-yl)-1,2,4-oxadiazol-3-yl)cyclopropane-1-carboxylic acid]",720
7,O=C(O)c1ccc(OCC23CCC(OCc4c(-c5c(Cl)cncc5Cl)noc4C4CC4)(CC2)CC3)cn1 [Example 319],270
8,COc1ccc(C#CC23CCC(OCc4c(-c5c(Cl)cncc5Cl)noc4C4CC4)(CC2)CC3)cc1C(=O)O [Example 367],91
9,"O=C(O)c1cnc(N2CC(F)C2)c(C#CC23CCC(OCc4c(-c5c(Cl)cncc5Cl)noc4C4CC4)(CC2)CC3)c1 [Example 523, 5-((4-((5-cyclopropyl-3-(3,5-dichloropyridin-4-yl)isoxazol-4-yl)methoxy)bicyclo[2.2.2]octan-1-yl)ethynyl)-6-(3-fluoroazetidin-1-yl)nicotinic acid]",24
10,O=C(O)c1cccc(-c2noc(C34CCC(OCc5c(-c6ccccc6OC(F)(F)F)noc5C5CC5)(CC3)CC4)n2)n1 [Example 47],550
11,"O=C(O)c1ccc2cc(OCC34CCC(OCc5c(-c6c(Cl)cccc6Cl)noc5C5CC5)(CC3)CC4)ccc2n1 [Example 105, 6-((4-((5-cyclopropyl-3-(2,6-dichlorophenyl)isoxazol-4-yl)methoxy)bicyclo[2.2.2]octan-1-yl)methoxy)quinoline-2-carboxylic acid]",76
12,O=C(O)c1cc(OC2CCC2)c2cc(C#CC34CCC(OCc5c(-c6c(Cl)cncc6Cl)noc5C5CC5)(CC3)CC4)ccc2n1 [Example 402],52
13,O=C(O)c1cccc(/C=C/C23CCC(COCc4c(-c5c(Cl)cccc5Cl)noc4C4CC4)(CC2)CO3)c1 [Example 200],220
14,"O=C(O)c1ccc(-c2noc(C34CCC(OCc5c(-c6ccccc6OC(F)(F)F)noc5C5CC5)(CC3)CC4)n2)cc1 [Example 2, 4-(5-(4-((5-cyclopropyl-3-(2-(trifluoromethoxy)phenyl)isoxazol-4-yl)methoxy)bicyclo[2.2.2]octan-1-yl)-1,2,4-oxadiazol-3-yl)benzoic acid]",170
15,"COc1cc(-c2noc(C34CCC(OCc5c(-c6c(Cl)cncc6Cl)noc5C5CC5)(CC3)CC4)n2)cc(C(=O)O)n1 [Example 257, 4-(5-(4-((5-cyclopropyl-3-(3,5-dichloropyridin-4-yl)isoxazol-4-yl)methoxy)bicyclo[2.2.2]octan-1-yl)-1,2,4-oxadiazol-3-yl)-6-methoxypicolinic acid]",79
16,"COc1cc(-c2noc(C34CCC(OCc5c(-c6c(Cl)cncc6Cl)noc5C5CC5)(CC3)CC4)n2)cc(C(=O)O)c1F [Example 241, 5-(5-(4-((5-cyclopropyl-3-(3,5-dichloropyridin-4-yl)isoxazol-4-yl)methoxy)bicyclo[2.2.2]octan-1-yl)-1,2,4-oxadiazol-3-yl)-2-fluoro-3-methoxybenzoic acid]",130
17,O=C(O)c1cnc(C#CC23CCC(OCc4c(-c5c(Cl)cncc5Cl)noc4C4CC4)(CC2)CC3)c(F)c1 [Example 379],240
